The text below walks through data of article PMC11288129, “Diversely evolved xibalbin variants from remipede venom inhibit potassium channels and activate PKA-II and Erk1/2 signaling” (BMC Biology, 2024).

Marks after values point to notes of the source that are not given here. Positions of bridges follow the written chain, without caps; N, C: chain ends. No end group written: not given here.

In one test the test system is hKv10.1. The experiment in a line: TEVC inhibition, Kv10.1. The format is cell-based, human. More on the design: unit not given here. The note with it: 1 µM. The source says: (§1) For the expression of Kv channels rat Kv1.1 (GenBank accession number: NM_173095 [88, 89]), rKv1.2 (NM_012970 [90, 91]), human Kv1.3 (NM_002232 [92, 93]), rKv1.4 (NM_012971 [94, 95]), rKv1.6 (NM_023954 [96, 97]), hKv2.1 (NM_004975 [98, 99]), hKv3.1 (NM_004976 [100, 101]), rKv4.2 (NM_031739 [102, 103]), hKv10.1 (NM_172362 [104, 105]), hERG1 [Kv11.1, (NM_000238 [106, 107])], and Shaker IR [from Drosophila melanogaster, (NM_167595 [108, 109])], Nav channels [rNav1.2 (NM_012647 [42, 110]), rNav1.4 (NM_013178 [111, 112]), hNav1.5 (NM_198056 [113, 114]), mNav1.6 (NM_001077499 [115, 116]), BgNav [from Blattella germanica, (DQ466887 [117, 118])] and the auxiliary subunits rβ1 (NM_001271045 [119, 120]), hβ1 (NM_001037 [121, 122]), and TipE [from D. melanogaster, (NM_079196 [109, 123])], and Cav channels hCav3.1 [124, 125], hCav3.2 [126, 127], and hCav3.3 [128, 129] in Xenopus oocytes, the linearized plasmids were transcribed using the T7 or SP6 mMESSAGEmMACHINE transcription kit (Ambion, Austin, TX, USA). Mature female animals were purchased from Nasco (Fort Atkinson, USA) and were housed in the Aquatic Facility (KU Leuven) in compliance with the regulations of the European Union (EU) concerning the welfare of laboratory animals as declared in Directive 2010/63/EU. The use of X. laevis oocytes was approved by the Animal Ethics Committee of the KU Leuven with the license number P186/2019. Stage V–VI oocytes were collected from anesthetized female X. laevis frog as previously described, with the frogs anesthetized by placement in 0.1% tricaine solution (amino benzoic acid ethyl ester; Merck, USA). Oocyte microinjection was performed using a microinjector (Drummond Scientifc®, USA), with a programmed cRNA injection volume of 4—50 nL, depending on the channel subtype. The oocytes were incubated in ND96 solution (96 mM NaCl, 2 mM KCl, 1.8 mM CaCl2, 2 mM MgCl2, and 5 mM HEPES, pH 7.4), supplemented with 50 mg/l gentamicin sulfate.
(§2) Electrophysiological measurements were performed at room temperature (18–22 °C) using the two-electrode voltage clamp (TEVC) technique. Data were obtained using a GeneClamp 500 amplifier (Axon Instruments, USA), and Clampex9 software (Axon Instruments), responsible for data acquisition and storage. Glass micropipettes were produced using glass capillaries (borosilicate WPI 1B120-6) and drawn in a WPI (World Precision Instruments, USA) manual stretcher. The bath and perfusion solutions were either the previously described ND96 (Nav and Kv channels) or calcium-free ND96 supplemented with 10 mM BaCl2 (Cav channels).
(§3) Whole-cell currents of oocytes were recorded 1 to 3 days after injection. Current and voltage electrodes were filled with 3 M KCl and their resistance was adjusted from 0.7 to 2.0 MΩ. Currents were sampled at 20 kHz (Nav channels) and 10 kHz (Kv and Cav channels) and filtered using a four-pole Bessel low-pass Bessel filter, at 1 kHz for sodium, and […] for potassium and calcium, except for the hERG ion channel, in which the currents were filtered at 1 kHz. Leak subtraction was performed using a -P/4 protocol. Kv1.x currents were evoked by 500 ms depolarizations to 0 mV followed by a 500-ms pulse to − 50 mV, from a holding potential of − 90 mV. Kv2.1, Kv3.1, and Kv4.2 currents were elicited by 500 ms pulses to + 20 mV from a holding potential of − 90 mV. Current traces of Kv10.1 were elicited by 2 s depolarization to 0 mV, from a holding potential of − 90 mV. Current traces of hERG1 channel were elicited by applying a + 40 mV prepulse for 2 s followed by a step of − 120 mV for 2 s. Sodium current traces were evoked by a 100 ms depolarization to 0 mV, from a holding potential of − 90 mV. The current–voltage (IV) relationships were determined by 100-ms step depolarizations between − 90 and + 40 mV, using 5 mV increments. […]

Another test deals with rKv4.2. The test can be described thus: TEVC inhibition, Kv4.2. The format is cell-based, rat. Also noted: unit not given here. The note with it: 1 µM.
Description: as §1, §2, §3

In a further test the test system is Shaker IR. The experiment in a line: TEVC inhibition, Shaker IR. The format is cell-based, Drosophila melanogaster. More on the design: unit not given here. The conditions noted are these: 1 µM.
Description: as §1, §2, §3

A further test has as its system hNav1.5. The experiment in a line: TEVC current-voltage relationship (Vhalf), Nav1.5. The format is cell-based, human. More on the design: Vhalf, toxin inactivation, Nav1.5 / Vhalf, toxin activation, Nav1.5: unit not given here. The conditions noted are these: for Vhalf, toxin activation, Nav1.5 / Vhalf, toxin inactivation, Nav1.5: 1 µM.
Description: as §1, §2, §3

As for “KRSCIRRFGRCDHRPNDCCYNSSCRCNLWGSNCRCQRMGLFQKWGK (disulfide 4-19, 11-24, 18-35, 26-33) [xib13]”, the “Inhibition data, Kv10.1” value in the test on hKv10.1 (replicate 1), in the test on hKv10.1 (replicate 2), in the test with hKv10.1 (replicate 3) and in the test with hKv10.1 (replicate 4) was 0.0 each time. The “Inhibition data, Kv4.2” value with rKv4.2 (replicate 1), in the test on rKv4.2 (replicate 2), in the test on rKv4.2 (replicate 3) and in the test with rKv4.2 (replicate 4) was 0.0 in each case. The “Inhibition data, Shaker” value in the test with Shaker IR (replicate 1), with Shaker IR (replicate 2), in the test with Shaker IR (replicate 3) and with Shaker IR (replicate 4) was 0.0 throughout. For the same sequence, the “Vhalf activation shift, Nav1.5” value in the test on hNav1.5 (1 µM versus control (ND96)) is 5.9*** mV. Moreover, the “Vhalf, toxin activation, Nav1.5” value in the test on hNav1.5 (replicate 1) is -22.7699; in the test with hNav1.5 (replicate 2), -23.9735; in the test with hNav1.5 (replicate 3), -25.0967. Besides, the results for the “Vhalf, toxin inactivation, Nav1.5” value in the test with hNav1.5 (replicate 1), in the test with hNav1.5 (replicate 2) and in the test with hNav1.5 (replicate 3) were -59.4076, -59.2524 and -59.4209, respectively.
For “RLFCIRHHKYCGHRPKRCCSGLFCRCNTFGTNCRCQSKGALGKLI (disulfide 4-19, 11-24, 18-35, 26-33) [xib1]”, the “Inhibition data, Kv10.1” value with hKv10.1 (replicate 1), in the test on hKv10.1 (replicate 2), in the test on hKv10.1 (replicate 3) and with hKv10.1 (replicate 4) was 0.0 in each case. For the same sequence, the “Inhibition data, Kv4.2” value in the test with rKv4.2 (replicate 1), with rKv4.2 (replicate 2), with rKv4.2 (replicate 3) and in the test with rKv4.2 (replicate 4) was 0.0 throughout. The “Inhibition data, Shaker” value with Shaker IR (replicate 1), in the test with Shaker IR (replicate 2), in the test on Shaker IR (replicate 3) and in the test with Shaker IR (replicate 4) was 0.0 each time. In addition, in the test on hNav1.5 (1 µM versus control (ND96)), the “Vhalf inactivation shift, Nav1.5” value turned out to be 1.5 mV. For the same sequence, the “Vhalf, toxin activation, Nav1.5” value is -27.2261 with hNav1.5 (replicate 1), -20.8548 in the test on hNav1.5 (replicate 2), -24.2578 in the test on hNav1.5 (replicate 3) and -22.0356 in the test on hNav1.5 (replicate 4). Moreover, the “Vhalf, toxin inactivation, Nav1.5” value is listed as -60.2865 in the test on hNav1.5 (replicate 1), -53.6522 with hNav1.5 (replicate 2), -54.899 with hNav1.5 (replicate 3) and -51.823 in the test with hNav1.5 (replicate 4).
